The term Ki denotes a dissociation constant, usually derived from enzyme kinetics or from competition with a known ligand. The low end stands for tighter binding, the high end for weaker binding.

In test [1] the target is T1, trypanothione reductase (Leishmania infantum, UniProt A4HSF7). In words: X-ray crystal structure at […] Å. The class given is biochemical.
Test [2] has as its target T1, trypanothione reductase. The test can be described thus: NADPH oxidation kinetics at […] nm, Lineweaver–Burk and Dixon plots. Type of test: biochemical.

T1 sequence (A4HSF7 1-491): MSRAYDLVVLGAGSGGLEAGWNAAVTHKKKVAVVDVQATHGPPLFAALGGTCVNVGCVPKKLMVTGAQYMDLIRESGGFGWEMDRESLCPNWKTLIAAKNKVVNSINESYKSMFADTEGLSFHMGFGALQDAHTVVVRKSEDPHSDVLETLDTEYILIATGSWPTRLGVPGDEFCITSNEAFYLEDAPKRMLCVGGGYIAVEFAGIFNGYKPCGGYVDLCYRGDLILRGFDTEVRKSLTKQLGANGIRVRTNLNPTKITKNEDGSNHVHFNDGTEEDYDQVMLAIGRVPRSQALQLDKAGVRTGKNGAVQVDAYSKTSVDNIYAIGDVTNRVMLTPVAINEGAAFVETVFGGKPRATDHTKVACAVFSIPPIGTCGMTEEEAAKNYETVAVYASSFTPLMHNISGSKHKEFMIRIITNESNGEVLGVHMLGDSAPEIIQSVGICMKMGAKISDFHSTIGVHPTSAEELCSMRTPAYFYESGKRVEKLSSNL

`CC[P](CC)(CC)=[Au][S][C@@H]1O[C@H](COC(C)=O)[C@@H](OC(C)=O)[C@H](OC(C)=O)[C@H]1OC(C)=O` [AF, auranofin]: in test [1], the inhibition constant Ki was found to be 155 ± 35 nM. The molecule `CCP(CC)CC.[Au+].[Cl-]` [CTPAu, Chloro(triethylphosphine)gold(I)] returned an inhibitory constant (Ki) in test [2] of 18 ± 7 nM.

The values above are taken from article PMC3266496 (2011).
